Results taken from US7053234B2 (Amgen Inc., priority 2000, dated 2006).
≈ marks a conversion by molar mass, not a printed value.

What was measured:
[1] = tested on: B. su; assay: MIC determination, B. su; type: cell-based; conditions: Table 1, 16 hours at 37° C. in LB medium, read-out: B. su (bacterial MIC)
Procedure: (§1) For MIC determinations for selected bacteria, log phase growing bacteria are re-suspended at 1×10^5 bacteria per mL in LB medium. The compound is added and two-fold dilutions are made. The final volume in the 96-well plate is about 100 uL. The plate is incubated at 37° C. in the dark with shaking. After 16 hours of incubation, growth is monitored by reading A600 or by visual inspection. MIC is defined as the minimum concentration of drug resulting in inhibition of visible growth of bacterial under the conditions described (above) in National Committee for Clinical Laboratory Standards 1993. Methods for dilution antimicrobial susceptibility tests for bacteria that grow aerobically. Approved standard M7-A3; National Committee for Clinical Laboratory Standards: Villanova, Pa.

[2] = tested on: E. coli (tolC); assay: MIC determination, E. coli (tolC); type: cell-based; conditions: Escherichia coli, 16 h, read-out: E. c(tolC) (bacterial MIC)
Procedure: as §1

[3] = molecular target: T1, Sigma^70 saturated E. coli RNA Polymerase (Escherichia coli, UniProt P0A8T7+P0A8V2); assay: RNA polymerase inhibition assay (E. coli enzyme); type: biochemical; conditions: Table 1; enzyme not named, method uses E. coli RNA polymerase; read-out: IC50
T1 construct: purchased Epicenter
T1 sequence (P0A8V2 whole entry): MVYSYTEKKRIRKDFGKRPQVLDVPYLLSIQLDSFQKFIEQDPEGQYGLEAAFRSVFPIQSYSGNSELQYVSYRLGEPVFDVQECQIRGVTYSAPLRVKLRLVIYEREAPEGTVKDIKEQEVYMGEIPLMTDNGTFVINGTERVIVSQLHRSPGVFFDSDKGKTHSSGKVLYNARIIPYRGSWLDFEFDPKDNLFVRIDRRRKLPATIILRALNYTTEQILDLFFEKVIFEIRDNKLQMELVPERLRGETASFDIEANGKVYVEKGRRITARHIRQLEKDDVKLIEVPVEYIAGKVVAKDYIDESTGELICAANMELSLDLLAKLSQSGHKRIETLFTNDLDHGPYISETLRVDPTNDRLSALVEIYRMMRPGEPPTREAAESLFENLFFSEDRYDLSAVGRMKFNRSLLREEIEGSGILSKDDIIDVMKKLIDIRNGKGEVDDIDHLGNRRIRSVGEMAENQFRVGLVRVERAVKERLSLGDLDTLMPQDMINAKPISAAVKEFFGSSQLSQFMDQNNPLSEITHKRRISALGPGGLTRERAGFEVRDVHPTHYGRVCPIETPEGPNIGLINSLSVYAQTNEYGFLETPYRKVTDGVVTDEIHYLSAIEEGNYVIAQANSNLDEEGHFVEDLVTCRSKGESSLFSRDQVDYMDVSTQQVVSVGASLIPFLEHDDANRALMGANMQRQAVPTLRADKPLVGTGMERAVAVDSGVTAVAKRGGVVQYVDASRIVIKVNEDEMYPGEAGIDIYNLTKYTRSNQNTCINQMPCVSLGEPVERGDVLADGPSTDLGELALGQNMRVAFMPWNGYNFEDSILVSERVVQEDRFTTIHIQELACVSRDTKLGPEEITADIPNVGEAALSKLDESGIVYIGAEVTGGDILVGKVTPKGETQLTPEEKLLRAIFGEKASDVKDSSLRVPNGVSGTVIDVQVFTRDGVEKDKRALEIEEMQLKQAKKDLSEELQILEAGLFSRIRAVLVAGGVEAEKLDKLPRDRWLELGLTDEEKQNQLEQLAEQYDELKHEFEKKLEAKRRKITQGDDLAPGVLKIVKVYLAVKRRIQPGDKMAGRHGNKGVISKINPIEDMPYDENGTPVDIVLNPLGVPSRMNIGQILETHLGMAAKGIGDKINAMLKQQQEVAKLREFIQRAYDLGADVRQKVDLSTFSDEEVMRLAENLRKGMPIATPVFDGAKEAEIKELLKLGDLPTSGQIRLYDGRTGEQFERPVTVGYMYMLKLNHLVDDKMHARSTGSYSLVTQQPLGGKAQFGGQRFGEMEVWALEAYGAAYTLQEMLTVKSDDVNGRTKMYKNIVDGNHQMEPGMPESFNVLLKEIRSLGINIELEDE
T1 sequence (P0A8T7 whole entry): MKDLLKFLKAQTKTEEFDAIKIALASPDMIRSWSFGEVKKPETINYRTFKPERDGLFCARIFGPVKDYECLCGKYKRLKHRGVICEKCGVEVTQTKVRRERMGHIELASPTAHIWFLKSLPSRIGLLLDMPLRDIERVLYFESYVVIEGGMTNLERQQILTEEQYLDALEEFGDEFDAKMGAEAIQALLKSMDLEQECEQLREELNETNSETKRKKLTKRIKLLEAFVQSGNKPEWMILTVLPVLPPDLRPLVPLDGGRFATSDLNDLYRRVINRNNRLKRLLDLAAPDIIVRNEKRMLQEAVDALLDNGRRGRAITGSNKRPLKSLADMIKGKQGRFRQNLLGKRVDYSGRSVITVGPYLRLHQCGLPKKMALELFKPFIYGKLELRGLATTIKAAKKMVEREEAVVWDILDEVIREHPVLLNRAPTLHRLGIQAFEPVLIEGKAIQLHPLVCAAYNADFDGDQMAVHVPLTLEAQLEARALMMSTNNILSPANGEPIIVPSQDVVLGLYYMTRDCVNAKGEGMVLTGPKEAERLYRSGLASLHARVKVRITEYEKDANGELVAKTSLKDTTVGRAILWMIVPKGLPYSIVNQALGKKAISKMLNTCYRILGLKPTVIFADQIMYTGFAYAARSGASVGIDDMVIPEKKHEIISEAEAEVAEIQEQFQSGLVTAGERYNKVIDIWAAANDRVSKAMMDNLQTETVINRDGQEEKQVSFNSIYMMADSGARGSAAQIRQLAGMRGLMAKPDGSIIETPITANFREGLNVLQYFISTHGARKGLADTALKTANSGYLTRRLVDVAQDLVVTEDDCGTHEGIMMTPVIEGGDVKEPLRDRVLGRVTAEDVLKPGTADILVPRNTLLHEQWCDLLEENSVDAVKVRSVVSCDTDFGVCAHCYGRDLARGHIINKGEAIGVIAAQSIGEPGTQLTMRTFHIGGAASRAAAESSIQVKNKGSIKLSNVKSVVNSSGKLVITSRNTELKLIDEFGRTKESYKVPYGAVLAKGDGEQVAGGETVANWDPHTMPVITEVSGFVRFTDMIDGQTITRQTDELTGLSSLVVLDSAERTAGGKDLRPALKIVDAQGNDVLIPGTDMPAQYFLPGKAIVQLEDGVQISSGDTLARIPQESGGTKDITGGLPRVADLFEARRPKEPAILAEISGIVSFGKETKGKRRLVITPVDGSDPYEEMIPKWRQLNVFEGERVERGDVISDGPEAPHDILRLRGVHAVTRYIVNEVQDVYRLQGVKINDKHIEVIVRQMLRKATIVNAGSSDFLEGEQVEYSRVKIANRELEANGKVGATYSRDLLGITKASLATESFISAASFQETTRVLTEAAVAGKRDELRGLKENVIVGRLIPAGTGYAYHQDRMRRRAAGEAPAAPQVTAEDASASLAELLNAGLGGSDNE
T1 sequence (P0A7Z4 whole entry partner): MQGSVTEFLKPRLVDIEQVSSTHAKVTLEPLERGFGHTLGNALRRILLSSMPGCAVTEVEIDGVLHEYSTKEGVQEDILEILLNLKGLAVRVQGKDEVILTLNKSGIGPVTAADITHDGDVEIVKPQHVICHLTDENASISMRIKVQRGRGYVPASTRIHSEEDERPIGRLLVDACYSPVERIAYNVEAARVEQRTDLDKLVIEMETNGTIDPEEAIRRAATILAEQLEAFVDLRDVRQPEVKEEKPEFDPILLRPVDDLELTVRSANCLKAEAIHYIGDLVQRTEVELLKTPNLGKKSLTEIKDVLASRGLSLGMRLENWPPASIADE
T1 sequence (P0A800 whole entry partner): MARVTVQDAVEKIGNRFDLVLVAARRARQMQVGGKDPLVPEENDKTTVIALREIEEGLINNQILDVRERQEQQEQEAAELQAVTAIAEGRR
T1 sequence (P00579 whole entry partner): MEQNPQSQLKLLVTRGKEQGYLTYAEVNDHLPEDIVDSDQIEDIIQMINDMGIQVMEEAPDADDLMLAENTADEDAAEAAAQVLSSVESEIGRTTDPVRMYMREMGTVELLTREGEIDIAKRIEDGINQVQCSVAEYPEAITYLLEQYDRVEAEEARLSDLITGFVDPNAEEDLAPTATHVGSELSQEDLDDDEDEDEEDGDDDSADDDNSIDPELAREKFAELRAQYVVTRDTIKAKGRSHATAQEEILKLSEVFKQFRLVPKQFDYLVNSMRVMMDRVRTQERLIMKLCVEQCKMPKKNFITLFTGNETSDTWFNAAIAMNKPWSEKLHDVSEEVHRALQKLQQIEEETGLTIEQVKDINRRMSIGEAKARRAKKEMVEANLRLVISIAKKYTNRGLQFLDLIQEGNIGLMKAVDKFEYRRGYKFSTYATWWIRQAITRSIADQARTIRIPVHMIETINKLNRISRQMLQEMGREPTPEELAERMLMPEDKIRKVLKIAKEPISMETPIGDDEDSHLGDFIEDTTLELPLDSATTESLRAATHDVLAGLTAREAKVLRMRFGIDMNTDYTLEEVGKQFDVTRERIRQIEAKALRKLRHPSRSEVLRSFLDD
Procedure: The compounds of the present invention can be evaluated for antibacterial activity in a variety of assay formats known to those of skill in art. The specific assays used to select the most appropriate compound for use will typically depend on the targeted bacteria or infection. One common assay involves evaluation of the compounds as RNA polymerase inhibitors. In this assay, buffer (250 mM KCl, 5% Glycerol, 10 mM MgCl2, 0.1 mg/ml BSA) is combined with 6 mM B-M.E., PT5 DNA template, and 1.3 ug/rxn Sigma^70 saturated E. coli RNA Polymerase (Epicenter). The compound is then added in a manner not to exceed 5% DMSO. Nucleotide triphosphates are then added at the following concentration: 250 uM ATP, […] and UTP with 100 uM cold CTP and 50 uM alpha ^32P CTP. The mixture is incubated for 10 min at about 37° C. A [2×] loading buffer is added and the mixture is then run on a 6% urea denaturing PAGE until bromophenol blue reaches the edge of plate. The gel is soaked (about 20 minutes in 10% MeOH and 10% acetic acid, to remove urea), then dried (about 55 minutes at about 85° C. (BioRad Gel Drier)) and exposed to a Phospho Imaging Plate for 1 hour. The plate is then read on a Fujix Bas1000 Imaging System and quantified using MacBas v2.0 software. An IC50 (in uM) can be calculated as the concentration of a drug which reduces the enzyme activity to 50% of the control.

[4] = tested on: S. aureus; assay: MIC determination, S. aureus; type: cell-based; conditions: Staphylococcus aureus; Table 1; MIC, 16 hours at 37° C. in LB medium; read-out: S. au (bacterial MIC)
Procedure: The compound is added and two-fold dilutions are made. The final volume in the 96-well plate is about 100 uL. The plate is incubated at 37° C. in the dark with shaking. After 16 hours of incubation, growth is monitored by reading A600 or by visual inspection. […] Methods for dilution antimicrobial susceptibility tests for bacteria that grow aerobically. Approved standard M7-A3; National Committee for Clinical Laboratory Standards: Villanova, Pa.

SMILES | MIC [1] [µM] | MIC [2] [µM] | IC50 [3] [µM] | MIC [4] [µM]
ON=C(Nc1cccc(F)c1)c1cccc(C(F)(F)F)c1 [R′=3-CF3, R″=H, R′″=3-F] | 40 to 125 (≈ 11.9 to 37.3 µg/mL) | < 40 | 10 to 50 | 40 to 125 (≈ 11.9 to 37.3 µg/mL)
ON=C(Nc1cccc(Oc2ccccc2)c1)c1cccc(C(F)(F)F)c1 [R′=3-CF3, R″=H, R′″=3-OPh] | < 40 | < 40 | > 50 | < 40
ON=C(Nc1cccc(F)c1)c1ccc(Cl)c(Cl)c1 [R′=3-Cl, R″=4-Cl, R′″=3-F] | 40 to 125 (≈ 12 to 37.4 µg/mL) | < 40 | 10 to 50 | 40 to 125 (≈ 12 to 37.4 µg/mL)
ON=C(Nc1cccc(Cl)c1)c1cccc(OC(F)(F)F)c1 [R′=3-OCF3, R″=H, R′″=3-Cl] | < 40 | < 40 | 10 to 50 | 40 to 125 (≈ 13.2 to 41.3 µg/mL)
ON=C(Nc1cccc(Cl)c1)c1ccc(Cl)cc1 [R′=4-Cl, R″=H, R′″=3-Cl] | 40 to 125 (≈ 11.2 to 35.1 µg/mL) | < 40 | > 50 | 40 to 125 (≈ 11.2 to 35.1 µg/mL)
